Measured values taken from US7723321B2, “Chromane substituted benzimidazole derivatives” (RaQualia Pharma Inc., priority 2005, dated 2010).

Assays:
[1] = biological target: T1, porcine gastric H^+/K^+-ATPase (Sus scrofa, UniProt P19156); assay: Ion-tight porcine gastric H+/K+-ATPase inhibition; assay type: biochemical; details: ion-tight porcine gastric vesicles, 150 mM KCl, valinomycin, pH 7.4, 37° C., 30 minutes
T1 construct: prepared from mucous membrane in fresh porcine stomachs by homogenization; from tissue; host or cells: mucous membrane of fresh porcine stomachs (gastric vesicles, Ficoll/sucrose gradient)
T1 sequence (P19156 2-1034 limits assumed): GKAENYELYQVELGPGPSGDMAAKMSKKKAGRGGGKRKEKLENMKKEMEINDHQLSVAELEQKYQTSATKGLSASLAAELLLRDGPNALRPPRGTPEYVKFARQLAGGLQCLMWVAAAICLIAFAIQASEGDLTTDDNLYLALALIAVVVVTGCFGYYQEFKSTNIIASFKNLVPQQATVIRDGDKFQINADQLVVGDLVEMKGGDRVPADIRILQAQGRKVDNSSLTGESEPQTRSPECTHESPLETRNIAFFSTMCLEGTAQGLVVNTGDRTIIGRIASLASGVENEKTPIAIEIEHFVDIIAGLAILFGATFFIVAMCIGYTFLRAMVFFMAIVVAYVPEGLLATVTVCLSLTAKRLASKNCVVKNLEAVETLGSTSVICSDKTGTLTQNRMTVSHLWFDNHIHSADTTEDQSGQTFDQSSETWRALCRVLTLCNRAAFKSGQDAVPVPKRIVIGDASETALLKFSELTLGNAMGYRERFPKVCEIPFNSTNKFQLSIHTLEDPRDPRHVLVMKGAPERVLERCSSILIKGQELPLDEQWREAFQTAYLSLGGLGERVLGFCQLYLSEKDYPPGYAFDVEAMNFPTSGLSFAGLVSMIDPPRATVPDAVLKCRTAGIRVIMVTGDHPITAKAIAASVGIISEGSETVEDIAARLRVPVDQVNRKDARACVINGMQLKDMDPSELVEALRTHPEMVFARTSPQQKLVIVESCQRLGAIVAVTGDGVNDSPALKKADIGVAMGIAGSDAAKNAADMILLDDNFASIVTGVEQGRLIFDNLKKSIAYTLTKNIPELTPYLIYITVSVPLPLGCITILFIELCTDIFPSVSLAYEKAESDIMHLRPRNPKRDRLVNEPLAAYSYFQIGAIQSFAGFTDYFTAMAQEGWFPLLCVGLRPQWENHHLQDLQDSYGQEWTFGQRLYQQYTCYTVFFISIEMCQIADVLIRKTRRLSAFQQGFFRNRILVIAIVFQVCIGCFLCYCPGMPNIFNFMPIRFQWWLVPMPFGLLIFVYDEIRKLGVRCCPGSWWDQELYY
T1 sequence (P18434 whole entry partner): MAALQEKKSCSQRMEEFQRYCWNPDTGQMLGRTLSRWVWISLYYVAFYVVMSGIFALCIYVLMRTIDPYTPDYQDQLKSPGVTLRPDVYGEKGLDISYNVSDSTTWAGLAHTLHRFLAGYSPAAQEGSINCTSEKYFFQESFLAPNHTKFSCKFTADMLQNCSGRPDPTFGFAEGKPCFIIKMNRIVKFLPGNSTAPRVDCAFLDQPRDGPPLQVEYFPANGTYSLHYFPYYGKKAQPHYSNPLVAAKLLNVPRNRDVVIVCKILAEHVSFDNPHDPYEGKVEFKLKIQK
Protocol: The porcine gastric vesicles for Porcine gastric H^+/K^+-ATPase inhibition assays were prepared from mucous membrane in fresh porcine stomachs by homogenization with a tight-fitted polytetrafluoroethylene (Teflone®) homogenizer in 0.25 M sucrose at 4° C. The crude pellet was removed with centrifugation at 20,000 g for 30 min. Then supernatant was centrifuged at 100,000 g for 30 min. The resulting pellet was re-suspended in 0.25 M sucrose, and then subjected to density gradient centrifugation at 132,000 g for 90 min. The gastric vesicles were collected from interface on 0.25 M sucrose layer containing 7% Ficoll™ PM400(Amersham Biosciences). This procedure was performed in a cold room.
Ion-tight porcine gastric H^+/K^+-ATPase inhibition was measured according to the modified method described in Biochemical Pharmacology, 1988, 37, 2231-2236.
The isolated vesicles were kept in deep-freezer until use. For enzyme assay, vesicles were diluted with 3 mM MgSO4 containing 5 mM Tris (pH 7.4 at 37° C.).
Enzyme reaction was performed incubating 150 mM KCl, 3 mM Na2ATP, 3 mM MgSO4 15 μM valinomycin and 3.0 μg of vesicles for 30 minutes at 37° C. in a final 60 μl of reaction mixture (5 mM Tris, pH 7.4) with or without the test compound. Enzyme reaction was stopped by adding 10% SDS. Released inorganic phosphate from ATP was detected by incubating with mixture of 1 part of 35 mM ammonium molybdate tetrahydrate in 15 mM Zinc acetate hydrate and 4 parts of 10% ascorbic acid (pH 5.0), resulting in phosphomolybdate, which has optical density at 750 nm.

gastric acid secretion = assay: Inhibition of gastric acid secretion in the Heidenhain pouch dog; assay type: in vivo, Beagle dogs; details: histamine-stimulated acid secretion, maximum inhibition relative to control
Protocol: Male Beagle dogs weighing 7-15 kg with Heidenhain pouch [Heidenhain R: Arch Ges Physiol. 1879, 19: 148-167] were used. The animals were allowed to recover from surgery for at least three weeks before the experiments. The animals were kept at a 12 hour light-dark rhythm, housed singly. They received standard food once daily at 11:00 a.m. and tap water ad libitum, and were fasted overnight prior to the experiment, with free access to water. Gastric juice samples were collected throughout the experiment by gravity drainage every 15 min. Acidity in the gastric juice was measured by titration to the end point of pH 7.0. Acid secretion was stimulated by a continuous intravenous infusion of histamine (80 μg/kg/h). Oral or intravenous bolus administration of the test compounds was done 90 minutes after commencement of the histamine infusion. The acid secretion was monitored after the administration. The activity was evaluated by the maximum inhibition relative to the corresponding control value.

Row | SMILES | IC50 [1] [nM] | inhibitory activity (gastric acid secretion) (gastric acid secretion)
1 | Cc1nc2c(OC3CCOc4cc(F)cc(F)c43)cc(C(=O)N3CCC3)cc2[nH]1 (single isomer, unassigned; (-)) [Example 22, (−)-6-(Azetidin-1-ylcarbonyl)-4-[(5,7-difluoro-3,4-dihydro-2H-chromen-4-yl)oxy]-2-methyl-1H-benzimidazole] | 570 | –
2 | Cc1nc2c(OC3CCOc4cccc(F)c43)cc(C(=O)N(C)C)cc2[nH]1 (racemic) [Example 9, 4-[(5-Fluoro-3,4-dihydro-2H-chromen-4-yl)oxy]-N,N,2-trimethyl-1H-benzimidazole-6-carboxamide] | 130 | –
3 | Cc1nc2c(OC3CCOc4cccc(C)c43)cc(C(=O)N(C)C)cc2[nH]1 (single isomer, unassigned; (-)) [Example 17, (−)-N,N,2-Trimethyl-4-[(5-methyl-3,4-dihydro-2H-chromen-4-yl)oxy]-1H-benzimidazole-6-carboxamide] | 99 | –
4 | Cc1nc2c(OC3CCOc4cc(F)cc(F)c43)cc(C(=O)N(C)C)cc2[nH]1 (racemic) [Example 1, 4-[(5,7-Difluoro-3,4-dihydro-2H-chromen-4-yl)oxy]-N,N,2-trimethyl-1H-benzimidazole-6-carboxamide] | 190 | –
5 | Cc1nc2c(OC3CCOc4cccc(F)c43)cc(C(=O)N(C)C)cc2[nH]1 (single isomer, unassigned; (-)) [Example 10, (−)-4-[(5-Fluoro-3,4-dihydro-2H-chromen-4-yl)oxy]-N,N,2-trimethyl-1H-benzimidazole-6-carboxamide] | 140 | –
6 | Cc1nc2c(OC3CCOc4cc(F)cc(F)c43)cc(C(=O)N(C)CCO)cc2[nH]1 (centres unmarked) [Example 7, 4-[(5,7-Difluoro-3,4-dihydro-2H-chromen-4-yl)oxy]-N-(2-hydroxyethyl)-N,2-dimethyl-1H-benzimidazole-6-carboxamide] | 1100 | –
7 | Cc1nc2c(OC3CCOc4c(F)ccc(F)c43)cc(C(=O)N(C)C)cc2[nH]1 (centres unmarked) [Example 14, 4-[(5,8-Difluoro-3,4-dihydro-2H-chromen-4-yl)oxy]-N,N,2-trimethyl-1H-benzimidazole-6-carboxamide] | 220 | –
8 | Cc1nc2c(OC3CCOc4cccc(C)c43)cc(C(=O)N3CCCC3)cc2[nH]1 (centres unmarked) [Example 20, 2-Methyl-4-[(5-methyl-3,4-dihydro-2H-chromen-4-yl)oxy]-6-(pyrrolidin-1-ylcarbonyl)-1H-benzimidazole] | 71 | –
9 | CNC(=O)c1cc(OC2CCOc3cccc(C)c32)c2nc(C)[nH]c2c1 (centres unmarked) [Example 19, N,2-Dimethyl-4-[(5-methyl-3,4-dihydro-2H-chromen-4-yl)oxy]-1H-benzimidazole-6-carboxamide] | 240 | –
10 | Cc1nc2c(OC3CCOc4cccc(C)c43)cc(C(=O)N(C)C)cc2[nH]1 (single isomer, unassigned; (+)) [Example 18, (+)-N,N,2-Trimethyl-4-[(5-methyl-3,4-dihydro-2H-chromen-4-yl)oxy]-1H-benzimidazole-6-carboxamide] | 130 | –
11 | Cc1nc2c(OC3CCOc4cc(F)cc(F)c43)cc(C(=O)N3CCCC3)cc2[nH]1 (single isomer, unassigned; (+)) [Example 5, (+)-4-[(5,7-Difluoro-3,4-dihydro-2H-chromen-4-yl)oxy]-2-methyl-6-(pyrrolidin-1-ylcarbonyl)-1H-benzimidazole] | 32 | –
12 | Cc1nc2c(OC3CCOc4cc(F)cc(F)c43)cc(C(=O)N3CCCC3)cc2[nH]1 (racemic) [Example 4, 4-[(5,7-Difluoro-3,4-dihydro-2H-chromen-4-yl)oxy]-2-methyl-6-(pyrrolidin-1-ylcarbonyl)-1H-benzimidazole] | 58 | –
13 | Cc1nc2c(O[C@@H]3CCOc4cc(F)cc(F)c43)cc(C(=O)N(C)C)cc2[nH]1 (single isomer, unassigned) [Example 3] | 98 | –
14 | Cc1nc2c(OC3CCOc4cc(F)cc(C)c43)cc(C(=O)N(C)C)cc2[nH]1 (centres unmarked) [Example 21, 4-[(7-Fluoro-5-methyl-3,4-dihydro-2H-chromen-4-yl)oxy]-N,N,2-trimethyl-1H-benzimidazole-6-carboxamide] | 82 | –
15 | Cc1nc2c(OC3CCOc4ccccc43)cc(C(=O)N(C)C)cc2[nH]1 (centres unmarked) [Example 12, 4-(3,4-Dihydro-2H-chromen-4-yloxy)-N,N,2-tri methyl-1H-benzimidazole-6-carboxamide] | 230 | –
16 | Cc1nc2c(O[C@H]3CCOc4cc(F)cc(F)c43)cc(C(=O)N(C)C)cc2[nH]1 (single isomer, unassigned) [Example 2] | 86 | good inhibitory activity
17 | Cc1nc2c(OC3CCOc4cc(F)cc(F)c43)cc(C(=O)N(C)CCN(C)C)cc2[nH]1 (centres unmarked) [Example 8, 4-[(5,7-Difluoro-3,4-dihydro-2H-chromen-4-yl)oxy]-N-[2-(dimethylamino)ethyl]-N,2-dimethyl-1H-benzimidazole-6-carboxamide] | 610 | –
18 | Cc1nc2c(OC3CCSc4ccccc43)cc(C(=O)N(C)C)cc2[nH]1 (centres unmarked) [Example 25, 4-(3,4-Dihydro-2H-thiochromen-4-yloxy)-N,N,2-trimethyl-1H-benzimidazole-6-carboxamide] | 160 | –
19 | Cc1nc2c(OC3CCOc4cc(F)cc(F)c43)cc(C(=O)N3CCCC3)cc2[nH]1 (single isomer, unassigned; (-)) [Example 6, (−)-4-[(5,7-Difluoro-3,4-dihydro-2H-chromen-4-yl)oxy]-2-methyl-6-(pyrrolidin-1-ylcarbonyl)-1H-benzimidazole] | 30 | –
20 | Cc1nc2c(OC3CCOc4c(F)ccc(C)c43)cc(C(=O)N(C)C)cc2[nH]1 (centres unmarked) [Example 13, 4-[(8-Fluoro-5-methyl-3,4-dihydro-2H-chromen-4-yl)oxy]-N,N,2-trimethyl-1H-benzimidazole-6-carboxamide] | 130 | –
21 | Cc1nc2c(OC3CCOc4cccc(F)c43)cc(C(=O)N(C)C)cc2[nH]1 (single isomer, unassigned; (+)) [Example 11, (+)-4-[(5-Fluoro-3,4-dihydro-2H-chromen-4-yl)oxy]-N,N,2-trimethyl-1H-benzimidazole-6-carboxamide] | 120 | –
22 | Cc1nc2c(OC3CCOc4cccc(C)c43)cc(C(=O)N(C)C)cc2[nH]1 (centres unmarked) [Example 16, N,N,2-Trimethyl-4-[(5-methyl-3,4-dihydro-2H-chromen-4-yl)oxy]-1H-benzimidazole-6-carboxamide] | 68 | –
23 | Cc1nc2c(O[C@H]3CCOc4cc(F)cc(F)c43)cc(C(=O)N3CCOCC3)cc2[nH]1 [Example 24, (−)-4-[(5,7-Difluoro-3,4-dihydro-2H-chromen-4-yl)oxy]-2-methyl-6-(morpholin-4-ylcarbonyl)-1H-benzimidazole] | 370 | –
24 | CCc1nc2c(OC3CCOc4cc(F)cc(F)c43)cc(C(=O)N(C)C)cc2[nH]1 (centres unmarked) [Example 15, 4-[(5,7-Difluoro-3,4-dihydro-2H-chromen-4-yl)oxy]-2-ethyl-N,N-dimethyl-1H-benzimidazole-6-carboxamide] | 210 | –
25 | CCN(C)C(=O)c1cc(O[C@H]2CCOc3cc(F)cc(F)c32)c2nc(C)[nH]c2c1 [Example 23, (−)-4-[(5,7-Difluoro-3,4-dihydro-2H-chromen-4-yl)oxy]-N-ethyl-N,2-dimethyl-1H-benzimidazole-6-carboxamide] | 110 | –
